Values of other authors as cited in patent US11045483B2, “Pain-killing composition comprising a salicylic acid derivative” (AB7 INNOVATION S.A.S.U, priority 2015, dated 2021).

Conditions: topical application of formulations; Sheree E. Cross et al., 1998

time that must elapse before detection in the circulatory system: around 60 minutes
SMILES: COC(=O)c1ccccc1O [methyl salicylate]
